Laboratory results taken from patent publication US9944618B2, “Inhibiting neurotransmitter reuptake” (Mayo Foundation for Medical Education and Research, priority 2013, dated 2018).
Like-named read-outs stand apart in the source and are kept apart here.

Tests used:
[1] = molecular target: human norepinephrine transporter (Homo sapiens (Human), UniProt P23975); test: Human NET (norepinephrine transporter) uptake assay; assay type: cell-based; conditions: read-out: hNET Ki
Protocol: This protocol was designed to measure inhibition of uptake by the human norepinephrine transporter. […] The Assay Buffer (AB) was 1×HBSS and 0.02 M HEPES.
(§1) The HEK293F cells were transfected with the human norepinephrine transporter and frozen in 1 mL aliquots at about 1E+07 cells/mL. On the day of the experiment, the cells were removed from −80° C. or liquid nitrogen and thawed in a room temperature water bath. The cells were dilute to about 1-2E+06 with Freestyle medium. A 1 mL sample (1:2 dilution) was prepared, and the cells were counted. The cells were spun at 1100 rpm for 5 minutes, and the medium was aspirated off. The cells were resuspend in medium at 1.5E+06 cells/mL for about 60,000 cells per well. 40 μL of cells were dispensed per well in the Biocoat plates. The plates were spun at 1100 rpm for 1 minute to improve homogeneity of the cell layer and were incubated at 37° C. for a minimum of 3 hours.
(§2) 12 μL of test compound (10 mM) in DMSO was added to the wells, and nomifensine was used as a control. […] The neurotransmitter transporter dye was prepared in AB prior to use.
(§3) Due to the proprietary nature of the dye formulation, all dye concentrations were expressed as a percentage of the vendor-recommended dye reconstitution. Thus, the above calculations were valid when both [dye] and Km were expressed in the same units (%). Compounds were tested in triplicate (n=3).

[2] = molecular target: human dopamine transporter (Homo sapiens (Human), UniProt Q01959); test: Human DAT (dopamine transporter) uptake assay; assay type: cell-based; conditions: read-out: hDAT Ki
Protocol: This protocol was designed to measure inhibition of uptake by the human dopamine transporter. […] The Assay Buffer (AB) was 1×HBSS and 0.02 M HEPES.
as §1, with “dopamine” for “norepinephrine”
as §2
Due to the proprietary nature of the dye formulation, all dye concentrations were expressed as a percentage of the vendor-recommended dye reconstitution. Thus, the above calculations were valid when both [dye] and K1 were expressed in the same units (%). Compounds were tested in triplicate (n=3).

[3] = molecular target: human serotonin transporter (Homo sapiens (Human), UniProt P31645); test: Human SERT (serotonin transporter) uptake assay; assay type: cell-based; conditions: read-out: hSERT Ki
Protocol: This protocol was designed to measure inhibition of uptake by the human serotonin transporter. […] The Assay Buffer (AB) was […] and 0.02 M HEPES.
as §1, with “serotonin” for “norepinephrine”
12 μL of test compound (10 mM) in DMSO was added to the wells, and nomifensine was used as a control. Fluoxetine (final assay concentration of 10 μM) was used for background signal. The neurotransmitter transporter dye was prepared in AB prior to use.
as §3

[4] = molecular target: CYP3A4 (Homo sapiens (Human), UniProt P08684); test: Cytochrome P450 inhibition assay, recombinant CYP3A4 (BFC substrate); assay type: in vitro ADME; conditions: recombinant enzyme
Protocol: (§4) Recombinant enzymes, 3A4 and 2D6, generated using the ABL yeast expression system were used. […] The assay mixture also included K2HPO4 (pH 7.4; conc. 0.1 M) and NADPH (conc. 1 mM). The incubation time was 30 minutes, and the reference inhibitor was A-naphthoflavone. For CYP2D6, the enzyme amount was 2 pmol per well, and the substrate (7-methoxy-4-(aminomethyl)-coumarin; MAMC) was used at 20 μM. The assay mixture also included K2HPO4 (pH 7.4; conc. 0.1 M) and NADPH (conc. 0.06 mM). The incubation time was 35 minutes, and the reference inhibitor was quinidine.
(§5) Briefly, 0.6 μL of serially diluted compound was added to 75 μL water. 10 μL of diluted compound in water was then added to each assay plate. 20 μL of a K2HPO4, enzyme, and substrate mixture was added. After 10 minutes of room temperature pre-incubation, 10 μL of NADPH was added, and the plates were placed at 37° C. for 30 or 35 minutes depending on the enzyme being tested. After the incubation was complete, 20 μL of 0.1% Tris/ACN was added to the plate. The plate was read on a FluorStar fluorescence plate reader.

[5] = molecular target: CYP2D6 (Homo sapiens (Human), UniProt P10635); test: Cytochrome P450 inhibition assay, recombinant CYP2D6 (MAMC substrate); assay type: in vitro ADME; conditions: recombinant enzyme
Protocol: as §4, §5

[6] = pKa of basic centres (Table 1); assay type: physicochemical
[7] = first base, e.g., an aliphatic primary, secondary, or tertiary amine, read-out: pKa (Base 1)
[8] = second base in the same molecule (if present), read-out: pKa (Base 2)

Sequence of CYP3A4 (P08684 whole entry): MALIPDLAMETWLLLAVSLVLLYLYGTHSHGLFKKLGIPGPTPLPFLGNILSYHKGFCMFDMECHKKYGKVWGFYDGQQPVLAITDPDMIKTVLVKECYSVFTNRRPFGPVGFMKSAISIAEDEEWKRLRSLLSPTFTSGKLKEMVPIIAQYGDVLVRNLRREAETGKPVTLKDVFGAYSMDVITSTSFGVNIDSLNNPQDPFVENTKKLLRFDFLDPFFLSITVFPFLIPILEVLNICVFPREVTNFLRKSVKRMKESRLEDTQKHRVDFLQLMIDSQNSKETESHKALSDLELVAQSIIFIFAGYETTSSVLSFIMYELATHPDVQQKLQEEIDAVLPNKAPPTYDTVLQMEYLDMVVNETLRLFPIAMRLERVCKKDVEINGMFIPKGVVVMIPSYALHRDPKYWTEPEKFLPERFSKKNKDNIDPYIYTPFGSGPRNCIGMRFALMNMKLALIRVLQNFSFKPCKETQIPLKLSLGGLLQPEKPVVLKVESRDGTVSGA
Sequence of human norepinephrine transporter (P23975 whole entry): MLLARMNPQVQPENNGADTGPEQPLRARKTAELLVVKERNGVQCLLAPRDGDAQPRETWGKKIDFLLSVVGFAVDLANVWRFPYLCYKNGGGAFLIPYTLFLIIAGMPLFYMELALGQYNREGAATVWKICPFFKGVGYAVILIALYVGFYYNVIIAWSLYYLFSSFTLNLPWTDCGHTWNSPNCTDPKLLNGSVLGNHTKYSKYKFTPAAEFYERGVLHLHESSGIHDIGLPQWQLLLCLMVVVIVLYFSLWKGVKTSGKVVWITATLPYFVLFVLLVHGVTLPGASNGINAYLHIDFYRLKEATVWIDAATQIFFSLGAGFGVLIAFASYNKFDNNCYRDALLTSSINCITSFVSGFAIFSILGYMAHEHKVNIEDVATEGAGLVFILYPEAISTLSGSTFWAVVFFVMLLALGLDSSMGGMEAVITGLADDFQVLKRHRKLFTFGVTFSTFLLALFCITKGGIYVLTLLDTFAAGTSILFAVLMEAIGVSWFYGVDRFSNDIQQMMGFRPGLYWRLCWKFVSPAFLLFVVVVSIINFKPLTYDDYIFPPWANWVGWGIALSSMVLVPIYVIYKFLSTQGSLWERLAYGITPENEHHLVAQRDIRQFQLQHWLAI
Sequence of CYP2D6 (P10635 whole entry): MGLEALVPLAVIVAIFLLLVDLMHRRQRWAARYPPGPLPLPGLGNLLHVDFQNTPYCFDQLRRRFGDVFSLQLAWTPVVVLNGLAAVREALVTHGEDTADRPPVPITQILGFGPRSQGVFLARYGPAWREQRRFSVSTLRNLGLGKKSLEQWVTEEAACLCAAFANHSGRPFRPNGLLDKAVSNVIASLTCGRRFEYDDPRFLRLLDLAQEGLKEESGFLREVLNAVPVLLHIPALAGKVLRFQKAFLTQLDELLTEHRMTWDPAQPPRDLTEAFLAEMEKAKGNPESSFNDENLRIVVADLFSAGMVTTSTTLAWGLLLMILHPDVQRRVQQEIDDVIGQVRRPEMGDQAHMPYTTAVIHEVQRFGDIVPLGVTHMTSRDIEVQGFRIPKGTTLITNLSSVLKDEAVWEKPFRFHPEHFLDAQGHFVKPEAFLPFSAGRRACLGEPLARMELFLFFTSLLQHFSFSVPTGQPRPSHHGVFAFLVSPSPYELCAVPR
Sequence of human serotonin transporter (P31645 whole entry): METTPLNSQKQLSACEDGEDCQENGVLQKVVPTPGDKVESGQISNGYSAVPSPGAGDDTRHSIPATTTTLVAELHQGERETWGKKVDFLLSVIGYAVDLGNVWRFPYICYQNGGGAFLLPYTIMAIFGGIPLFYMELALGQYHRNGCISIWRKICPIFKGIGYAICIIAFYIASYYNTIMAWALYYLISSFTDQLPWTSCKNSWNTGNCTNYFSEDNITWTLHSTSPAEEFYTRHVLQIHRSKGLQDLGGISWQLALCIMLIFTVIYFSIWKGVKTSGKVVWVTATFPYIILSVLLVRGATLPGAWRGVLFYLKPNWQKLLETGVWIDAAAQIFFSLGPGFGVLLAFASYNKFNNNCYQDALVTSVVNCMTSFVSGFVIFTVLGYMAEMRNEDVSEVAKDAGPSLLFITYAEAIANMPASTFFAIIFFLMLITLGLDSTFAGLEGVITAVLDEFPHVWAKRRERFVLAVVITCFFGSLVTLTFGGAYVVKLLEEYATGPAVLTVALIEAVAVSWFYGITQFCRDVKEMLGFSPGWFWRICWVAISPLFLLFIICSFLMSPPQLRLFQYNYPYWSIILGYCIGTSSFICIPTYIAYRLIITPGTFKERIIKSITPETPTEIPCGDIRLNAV
Sequence of human dopamine transporter (Q01959 whole entry): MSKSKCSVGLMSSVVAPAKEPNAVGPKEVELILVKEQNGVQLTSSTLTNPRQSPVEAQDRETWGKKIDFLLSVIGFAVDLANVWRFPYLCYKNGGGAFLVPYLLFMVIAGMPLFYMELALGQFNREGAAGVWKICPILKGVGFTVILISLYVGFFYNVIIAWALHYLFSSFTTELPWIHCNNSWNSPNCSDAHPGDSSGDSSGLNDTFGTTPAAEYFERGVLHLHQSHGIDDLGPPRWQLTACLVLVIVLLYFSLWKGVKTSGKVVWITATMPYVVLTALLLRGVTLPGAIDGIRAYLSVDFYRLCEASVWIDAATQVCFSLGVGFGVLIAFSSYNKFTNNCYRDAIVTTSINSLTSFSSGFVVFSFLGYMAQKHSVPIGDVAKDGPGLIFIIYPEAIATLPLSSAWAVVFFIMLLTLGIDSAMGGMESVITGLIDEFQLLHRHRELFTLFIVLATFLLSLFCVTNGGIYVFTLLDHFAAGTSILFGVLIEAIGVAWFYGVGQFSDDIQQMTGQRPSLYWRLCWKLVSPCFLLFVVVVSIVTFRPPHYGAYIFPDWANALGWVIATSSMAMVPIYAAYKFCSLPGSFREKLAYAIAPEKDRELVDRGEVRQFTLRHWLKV

| Ki [1] [µM] | Ki [2] [µM] | Ki [3] [µM] | IC50 [4] [µM] | IC50 [5] [µM] | pKa [6, 7] | pKa [6, 8] | Structure (SMILES) | pKa (Base 1) ([6]; first base, e.g., an aliphatic primary, secondary, or tertiary amine) | pKa (Base 2) ([6]; second base in the same molecule (if present)) |
| --- | --- | --- | --- | --- | --- | --- | --- | --- | --- |
| 0.0032 | 0.0106 | 0.0525 | 19 | 0.13 | 9.6 | – | CNC[C@H](c1ccc2ccccc2c1)[C@H](O)c1cc(F)cc(F)c1 (racemic) [Compound 41] | – | – |
| 0.0885 | 0.0571 | 0.754 | ≥ 20 | 2.2 | 9.5 | 4.9 | CNC[C@@H](c1ccc(Cl)c(Cl)c1)[C@@H](O)c1cccc(N(C)C)c1 (single isomer, unassigned) [Compound 108] | – | – |
| 4.57 | 0.0873 | 3.37 | – | 3.7 | 4.6 | – | O[C@@H](c1ccccc1)[C@@H](CNCC(F)(F)F)c1ccc2ccccc2c1 (single isomer, unassigned) [Compound 130] | – | – |
| 0.0893 | 0.144 | 0.178 | 4.6 | 0.78 | 9.5 | 4.9 | CNC[C@H](c1ccc(Cl)c(Cl)c1)[C@H](O)c1cccc(N(C)C)c1 (single isomer, unassigned) [Compound 168] | – | – |
| 0.0014 | 0.0109 | 0.0025 | 20 | 0.3 | 6.6 | – | CN1CO[C@H](c2ccccc2)[C@@H](c2ccc3ccccc3c2)C1 [Compound 4] | – | – |
| 0.0016 | 0.0526 | 0.0027 | 20 | 0.88 | 9.6 | 5.4 | CNC[C@H](c1ccc2ccccc2c1)[C@H](O)c1ccncc1 [Compound 12] | – | – |
| 0.0046 | 1.63 | 0.0018 | 20 | 0.81 | 10 | – | CNC[C@H](c1ccc(OC)c(C)c1)[C@H](O)c1cccnc1 [Compound 55] | – | – |
| 0.0067 | 0.0782 | 0.853 | 8.3 | 2.8 | 9.4 | 4.3 | CNC[C@H](c1ccc(Cl)c(Cl)c1)[C@@H](O)c1cccc(N)c1 [Compound 63] | – | – |
| 0.0104 | 0.505 | 0.0021 | 16 | 0.56 | 10 | 4.8 | CNCC(Cc1ccccc1)c1ccc2cccnc2c1 (stereo not shown) [Compound 75] | – | – |
| 0.0552 | 0.0293 | 0.0862 | 5.7 | 0.12 | 9.3 | – | CNC[C@H](c1ccc(Cl)c(Cl)c1)[C@H](O)c1cccc([N+](=O)[O-])c1 [Compound 102] | – | – |
| 0.12 | 0.0667 | 0.646 | 20 | 1.1 | 9.3 | 4.5 | CNC[C@@H](c1ccc(Cl)c(Cl)c1)[C@@H](O)c1cncc(OC)c1 [Compound 109] | – | – |
| 0.148 | 0.273 | 0.154 | 18 | 2.9 | 8.6 | 5.1 | NCC[C@@H](Cc1cccnc1)c1ccc(Cl)c(Cl)c1 [Compound 112] | – | – |
| 0.236 | 0.0129 | 0.796 | 20 | 5.5 | 9.6 | – | CNC[C@@H](c1ccc2ccccc2c1)[C@@H](OCC(N)=O)c1ccccc1 [Compound 117] | – | – |
| 0.338 | 0.0153 | 0.167 | – | 3 | 8.2 | – | CN1CCO[C@@H](c2ccccc2)[C@H](c2ccc3ccccc3c2)C1 [Compound 124] | – | – |

The next lines start with the compound.

| Structure (SMILES) | Ki [1] [µM] | Ki [2] [µM] | Ki [3] [µM] | IC50 [4] [µM] | IC50 [5] [µM] | pKa [6, 7] | pKa [6, 8] | pKa (Base 1) ([6]; first base, e.g., an aliphatic primary, secondary, or tertiary amine) | pKa (Base 2) ([6]; second base in the same molecule (if present)) |
| --- | --- | --- | --- | --- | --- | --- | --- | --- | --- |
| CN(C)C[C@H](c1ccc(Cl)c(Cl)c1)[C@H](O)c1ccccc1 (racemic) [Compound 105] | 0.0646 | 0.0181 | 0.138 | ≥ 20 | 2.1 | 8.8 | – | – | – |
| CNC[C@H](c1ccc(-c2ccccc2)cc1)[C@H](O)c1ccccc1 (racemic) [Compound 113] | 0.167 | 1.57 | 0.0052 | 16 | 0.22 | 9.8 | – | – | – |
| CNC[C@H](c1ccc(Cl)c(Cl)c1)[C@H](O)c1ccncc1 (racemic) [Compound 155] | 0.0178 | 0.0466 | 0.0737 | ≥ 20 | 1.4 | 9.3 | 5.3 | – | – |
| CNC[C@H](c1ccc2ccccc2c1)[C@H](O)c1ccc(Cl)s1 (single isomer, unassigned) [Compound 58] | 0.0051 | 0.127 | 0.0059 | 9.6 | 0.12 | 9.7 | – | – | – |
| CNC[C@@H](c1ccc(Cl)c(Cl)c1)[C@@H](O)c1cccc([S+](C)[O-])c1 (single isomer, unassigned) [Compound 116] | 0.195 | 0.0397 | 1.69 | 20 | 15 | 9.4 | – | – | – |
| CNC[C@H](c1ccc(Cl)c(Cl)c1)[C@H](O)c1cccc(N)c1 [Compound 24] | 0.0022 | 0.0219 | 0.0714 | 20 | 1.4 | 9.4 | 4.3 | – | – |
| CNC[C@H](c1ccc2ccccc2c1)[C@H](OCCO)c1ccccc1 [Compound 32] | 0.0027 | 0.0158 | 0.0007 | 20 | 0.56 | 9.6 | – | – | – |
| CNC[C@H](c1ccc(Cl)c(Cl)c1)[C@H](O)c1cccc(S(C)(=O)=O)c1 [Compound 101] | 0.0544 | 0.073 | 2.74 | 20 | 3.5 | 9.3 | – | – | – |
| CNC[C@@H](c1ccc2ccccc2c1)[C@@H](O)c1cccnc1 [Compound 103] | 0.0576 | 0.0919 | 0.0586 | 20 | 11 | – | – | 9.6 | 5.1 |
| CNC[C@H](c1ccc(Cl)c(Cl)c1)[C@@H](O)c1cccnc1OC [Compound 104] | 0.0606 | 0.0946 | 0.656 | 0.27 | 0.066 | 9.2 | 3.2 | – | – |
| CNC[C@@H](c1ccc(Cl)c(Cl)c1)[C@@H](O)c1ccsc1 [Compound 106] | 0.0806 | 0.0197 | 0.742 | 20 | 3.9 | 9.5 | – | – | – |
| NCC(c1ccc2ccccc2c1)C(O)c1ccc(F)cc1F (stereo not shown) [Compound 107] | 0.0822 | 0.126 | 0.727 | 19 | 2.4 | 8.5 | – | – | – |
| CN1CCO[C@@H](c2ccccc2)[C@@H](c2ccc3ccccc3c2)C1 [Compound 123] | 0.29 | 0.379 | 0.012 | – | 6.6 | 8.2 | – | – | – |
| CN1C[C@H](c2ccc3ccccc3c2)[C@@H](c2ccccc2)OCC1=O [Compound 129] | 3.67 | 0.0435 | 3.37 | 20 | 20 | – | – | – | – |
